Values belong to the substance of their own block, whether it stands above or below them.
How the values were obtained:
UBXD1-PUB = target: T1, UBXD1-PUB (Homo sapiens, UniProt Q9BZV1); assay: 15N-HSQC NMR titration of 15N-labeled UBXD1-PUB with p97 peptides; type: binding; details: 50 mM NaKPi pH 6.5, 25 °C; for binding in 15N-HSQC NMR titration: phosphorylated p97-C13-pY805, 270 µM protein, up to 1.25 mM peptide, 1.2 mM or 1.1 mM (Figure S1)
T1 construct: N-terminal hexahistidine-tagged UBXD1-PUB (150–264) was cloned into a pET28a expression vector; hexahistidine (His6) (N); made in house
T1 sequence (Q9BZV1 150-264): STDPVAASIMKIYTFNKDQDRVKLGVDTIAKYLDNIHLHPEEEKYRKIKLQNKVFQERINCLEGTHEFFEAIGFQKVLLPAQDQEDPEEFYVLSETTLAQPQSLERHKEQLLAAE
Procedure: The NMR samples contained 200–800 µM of ^15N,^13C- or ^15N-labeled protein in 50 mM NaKPi pH 6.5, 90%/10% (v/v) H2O/D2O. ^13C(aliphatic)-COSY and TOCSY experiments were measured in the same buffer with 100% D2O. All spectra were recorded at 25 °C on a 700 MHz Bruker Ultrashield NMR spectrometer equipped with a 5 mm TCI (^1H/^13C/^15N) triple resonance cryoprobe head. Spectra were processed with Topspin 3.5 (Bruker) and analyzed with CARA [42].
To 362 μM ^15N-labeled UBXD1-PUB, the p97-C10 or p97-C13 peptides were added stepwise to a final concentration of 1.1 mM. For the titration of the phosphorylated p97-C13-pY^805 peptide to the PUB domain, the protein concentration was 270 µM, and the peptide was titrated to a final concentration of 1.2 mM. After each addition, the ^1H,^15N-HSQC spectrum was recorded.
The chemical shift perturbation Δδtotal was calculated from the ^1H- and ^15N-shifts according to Equation (1) using the spectra with no peptide and the highest concentration of peptide, where ΔδN and ΔδH represent the chemical shift perturbation value of the amide nitrogen and proton, respectively:(1) Δδtotal=(ΔδH)^2+(0.154⋅ΔδN)^2.

UBXD1 PUB domain = target: T2, UBXD1 PUB domain (Homo sapiens, UniProt Q9BZV1); assay: p97-PIM peptide binding to UBXD1 PUB domain (summary); details: isolated p97-PIM peptide
T2 construct: N-terminal hexahistidine-tagged UBXD1-PUB (150–264) was cloned into a pET28a expression vector; hexahistidine (His6) (N); made in house
T2 sequence (Q9BZV1 150-264): T1 sequence (Q9BZV1 150-264)
Procedure: Fluorescence anisotropy measurements (excitation: 495 nm; emission 518 nm) were carried out on a JASCO FP-8300 fluorescence spectrometer in 50 mM NaKPi, pH 6.5 at 25 °C, titrating PUB constructs to 5,6-FAM labeled p97-C10 peptide (100 nM). All titrations were performed in triplicate. Binding curves of the averaged data were fitted with GraphPad Prism 5.0 (GraphPad) using the quadratic binding equation for a one-site specific binding model:(3) r=r0+rmax⋅(F+x+KD)−(F+x+KD)^2−4⋅x⋅F/2⋅F, with r = anisotropy, r0 = anisotropy without protein, rmax = maximum anisotropy, F = fluorescent probe (labeled peptide or protein) concentration, x = titrant protein concentration, and KD = dissociation constant.
ITC measurements were performed in triplicate with a MicroCal iTC2000 (Malvern Pananalytical). UBXD1-PUB (100 µM) was titrated with 1 mM of p97-C10 peptide in 50 mM NaKPi buffer (pH 6.5) at 25 °C in 40 steps with a volume of 0.5 µL for the first 9 steps and 1.0 µL for the remaining ones.

HOIP PUB domain = details: ref [25],[27],[34]; cited from earlier work
Source text: (§1) UBXD1, PNGase, and HOIP PUB domains bind the p97-PIM peptide with KDs in the low µM range and a 1:1 stoichiometry (Table 2, Figure 4, Figure 5 and Figure S2, and [25, 27, 34]). The KD of HOIP for the OTULIN- and SPATA2-PIMs, however, is 50 times lower and lies in the nM range, which maybe reflects that these complexes either operate at lower concentrations in the cell or a have a lesser need to exchange their binding partners. p97, on the other hand, might need to swap cofactors more readily either within one pathway or to switch between different pathways.

PNGase PUB domain = details: ref [25],[27],[34]; cited from earlier work
Source text: as §1

chemical shift perturbations (CSPs) Δδtotal (UBXD1-PUB; 362 μM 15N-UBXD1-PUB, peptide to 1.1 mM, resonances between second and fourth α-helix): > 0.2 ppm
Substance: SVYTEDNDDDLYG [p97-C13]

binding in 15N-HSQC NMR titration (UBXD1-PUB): no
binding in 15N-HSQC NMR titration (UBXD1-PUB; listed as p97-C13 peptide carrying a phosphorylated pY805): did not show any binding
Substance: SVYTEDNDDDLpYG [phosphorylated p97-C13]

KD of PUB domain for p97-PIM peptide (UBXD1 PUB domain): low µM range
Substance: p97-PIM peptide: PUB interacting motif (PIM) in the p97 C-terminus (TEDNDDDLYG)
KD of PUB domain for p97-PIM peptide (HOIP PUB domain): low µM range
KD of PUB domain for p97-PIM peptide (PNGase PUB domain): low µM range
